Patent EP2818472A1, “Imidazo[4,5-c]pyridine and pyrrolo[3,2-c]pyridine compounds as G-protein-coupled receptor kinase 5 (GRK5) modulators” (Max-Planck-Gesellschaft zur Förderung der Wissenschaften …, priority 2013, dated 2014)

What follows are compounds tested on beta-TC6 cells (assay: Insulin HTRF assay (relative activity Ar) in beta-TC6 cells). Conditions: Mus musculus, Beta-TC6, 4 h, insulin HTRF, supernatant of beta-TC6 cells, incubation with test compound at 37°C for 2, 3, 4h; read-out: Ar (relative activity).
Format: cell-based, mouse
Summary of the method: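 beta-TC6 cells (15k/well, seeded 24 or 48 h) washed, then exposed to compound in induction buffer (0.5% DMSO final) for 2, 3 or 4 h at 37°C.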
Compound `CC(=O)Nc1ccc(Nc2nccc3c2cc(-c2ccsc2)n3C)cc1` [Compound 270, N-[4-[[1-methyl-2-(3-thienyl)pyrrolo[3,2-c]pyridin-4-yl]amino]phenyl]acetamide] has an Emax of 50 to 100%.
`Cn1c(-c2ccsc2)cc2c(Nc3ccc(O)cc3)nccc21` [Compound 271, 4-[[1-methyl-2-(3-thienyl)pyrrolo[3,2-c]pyridin-4-yl]amino]phenol] gave an Emax of 50 to 100%.
In the case of `Cn1c(-c2ccsc2)cc2c(Nc3ccc4c(c3)OCCO4)nccc21` [Compound 273, N-(2,3-dihydro-1,4-benzodioxin-6-yl)-1-methyl-2-(3-thienyl)pyrrolo[3,2-c]pyridin-4-amine], the Emax is reported as 30 to 50%.
With `COc1ccc(Nc2nccc3c2cc(-c2ccsc2)n3C)cc1OC` [Compound 274, N-(3,4-dimethoxyphenyl)-1-methyl-2-(3-thienyl)pyrrolo[3,2-c]pyridin-4-amine] the Emax was 30 to 50%.
`COc1ccc(Nc2nccc3c2cc(-c2ccsc2)n3C)cn1` [Compound 275, N-(6-methoxy-3-pyridyl)-1-methyl-2-(3-thienyl)pyrrolo[3,2-c]pyridin-4-amine] gave an Emax of 50 to 100%.
Work on `Cn1c(-c2ccsc2)cc2c(Nc3cccnc3)nccc21` [Compound 276, 1-methyl-N-(3-pyridyl)-2-(3-thienyl)pyrrolo[3,2-c]pyridin-4-amine] yielded an Emax of 30 to 50%.
Compound `CN(C)c1cccc(Nc2nccc3c2cc(-c2ccsc2)n3C)c1` [Compound 277, N1,N1-dimethyl-N3-[1-methyl-2-(3-thienyl)pyrrolo[3,2-c]pyridin-4-yl]benzene-1,3-diamine] has an Emax of 30 to 50%.
For `Cn1c(-c2ccsc2)cc2c(Nc3ccncc3)nccc21` [Compound 278, 1-methyl-N-(4-pyridyl)-2-(3-thienyl)pyrrolo[3,2-c]pyridin-4-amine], the Emax was 50 to 100%.
Compound `COc1ccc(Nc2nccc3c2cc(-c2ccsc2)n3C)cc1` [Compound 279, N-(4-methoxyphenyl)-1-methyl-2-(3-thienyl)pyrrolo[3,2-c]pyridin-4-amine] has an Emax of 30 to 50%.
In the case of `Cn1c(-c2ccsc2)cc2c(Nc3ccccn3)nccc21` [Compound 280, 1-methyl-N-(2-pyridyl)-2-(3-thienyl)pyrrolo[3,2-c]pyridin-4-amine], the Emax is reported as 30 to 50%.
With `Cn1c(-c2ccsc2)cc2c(Nc3ccc(C#N)cc3)nccc21` [Compound 281, 4-[[1-methyl-2-(3-thienyl)pyrrolo[3,2-c]pyridin-4-yl]amino]benzonitrile] the Emax was 0 to 30%.
`Cn1c(-c2ccsc2)cc2c(Nc3cccc(S(C)(=O)=O)c3)nccc21` [Compound 282, 1-methyl-N-(3-methylsulfonylphenyl)-2-(3-thienyl)pyrrolo[3,2-c]pyridin-4-amine] was tested, and the Emax was 30 to 50%.
With `Cn1c(-c2ccsc2)cc2c(Nc3ccc4c(c3)OCO4)nccc21` [Compound 283, N-(1,3-benzodioxol-5-yl)-1-methyl-2-(3-thienyl)pyrrolo[3,2-c]pyridin-4-amine] the Emax was 30 to 50%.
Compound `COc1ccc(Nc2nccc3c2cc(-c2ccsc2)n3C)cc1O` [Compound 284, 2-methoxy-5-[[1-methyl-2-(3-thienyl)pyrrolo[3,2-c]pyridin-4-yl]amino]phenol] has an Emax of 50 to 100%.
`Cn1c(-c2ccsc2)cc2c(Nc3ccncn3)nccc21` [Compound 285, 1-methyl-N-pyrimidin-4-yl-2-(3-thienyl)pyrrolo[3,2-c]pyridin-4-amine] showed an Emax of 50 to 100%.
Compound `Cn1c(-c2ccsc2)cc2c(Nc3cccc(NS(C)(=O)=O)c3)nccc21` [Compound 286, N-[3-[[1-methyl-2-(3-thienyl)pyrrolo[3,2-c]pyridin-4-yl]amino]phenyl]methanesulfonamide] has an Emax of 50 to 100%.
`CC(=O)Nc1cccc(Nc2nccc3c2cc(-c2ccsc2)n3C)c1` [Compound 287, N-[3-[[1-methyl-2-(3-thienyl)pyrrolo[3,2-c]pyridin-4-yl]amino]phenyl]acetamide] showed an Emax of 50 to 100%.
`CC(=O)c1cccc(Nc2nccc3c2cc(-c2ccsc2)n3C)c1` [Compound 288, 1-[3-[[1-methyl-2-(3-thienyl)pyrrolo[3,2-c]pyridin-4-yl]amino]phenyl]ethanone] was tested, and the Emax was 30 to 50%.
Work on `Cn1c(-c2ccsc2)cc2c(Nc3ccc(S(C)(=O)=O)cc3)nccc21` [Compound 289, 1-methyl-N-(4-methylsulfonylphenyl)-2-(3-thienyl)pyrrolo[3,2-c]pyridin-4-amine] yielded an Emax of 30 to 50%.
`COc1cc(OC)cc(-c2cc3c(Nc4ccc(C(N)=O)cc4)nccc3[nH]2)c1` [Compound 290, 4-[[2-(3,5-dimethoxyphenyl)-1H-pyrrolo[3,2-c]pyridin-4-yl]amino]benzamide] gave an Emax of 50 to 100%.
With `COc1cc(OC)cc(-c2cc3c(Nc4ccncc4)nccc3[nH]2)c1` [Compound 291, 2-(3,5-dimethoxyphenyl)-N-(4-pyridyl)-1H-pyrrolo[3,2-c]pyridin-4-amine] the Emax was 50 to 100%.
Work on `COc1cc(OC)cc(-c2cc3c(Nc4cccc(NS(C)(=O)=O)c4)nccc3[nH]2)c1` [Compound 292, N-[3-[[2-(3,5-dimethoxyphenyl)-1H-pyrrolo[3,2-c]pyridin-4-yl]amino]phenyl]methanesulfonamide] yielded an Emax of 30 to 50%.
With `COc1cc(OC)cc(-c2cc3c(Nc4ccc(S(C)(=O)=O)cc4)nccc3[nH]2)c1` [Compound 293, 2-(3,5-dimethoxyphenyl)-N-(4-methylsulfonylphenyl)-1H-pyrrolo[3,2-c]pyridin-4-amine] the Emax was 50 to 100%.
In the case of `COc1ccccc1-c1cc2c(Nc3ccc(C(N)=O)cc3)nccc2[nH]1` [Compound 294, 4-[[2-(2-methoxyphenyl)-1H-pyrrolo[3,2-c]pyridin-4-yl]amino]benzamide], the Emax is reported as 50 to 100%.
Work on `COc1ccccc1-c1cc2c(Nc3ccncc3)nccc2[nH]1` [Compound 295, 2-(2-methoxyphenyl)-N-(4-pyridyl)-1H-pyrrolo[3,2-c]pyridin-4-amine] yielded an Emax of 50 to 100%.
For `COc1ccccc1-c1cc2c(Nc3ccc4c(c3)OCO4)nccc2[nH]1` [Compound 296, N-(1,3-benzodioxol-5-yl)-2-(2-methoxyphenyl)-1H-pyrrolo[3,2-c]pyridin-4-amine], the Emax was 30 to 50%.
Compound `COc1ccccc1-c1cc2c(Nc3cccc(O)c3)nccc2[nH]1` [Compound 297, 3-[[2-(2-methoxyphenyl)-1H-pyrrolo[3,2-c]pyridin-4-yl]amino]phenol] has an Emax of 30 to 50%.
For `COc1ccccc1-c1cc2c(Nc3cccc(NS(C)(=O)=O)c3)nccc2[nH]1` [Compound 298, N-[3-[[2-(2-methoxyphenyl)-1H-pyrrolo[3,2-c]pyridin-4-yl]amino]phenyl]methanesulfonamide], the Emax was 50 to 100%.
`COc1ccccc1-c1cc2c(Nc3cccc(NC(C)=O)c3)nccc2[nH]1` [Compound 299, N-[3-[[2-(2-methoxyphenyl)-1H-pyrrolo[3,2-c]pyridin-4-yl]amino]phenyl]acetamide] was tested, and the Emax was 50 to 100%.
For `COc1ccccc1-c1cc2c(Nc3ccc(S(C)(=O)=O)cc3)nccc2[nH]1` [Compound 300, 2-(2-methoxyphenyl)-N-(4-methylsulfonylphenyl)-1H-pyrrolo[3,2-c]pyridin-4-amine], the Emax was 50 to 100%.
For `COc1ccccc1-c1cc2c(Nc3ccc(NC(C)=O)cc3)nccc2n1C` [Compound 301, N-[4-[[2-(2-methoxyphenyl)-1-methyl-pyrrolo[3,2-c]pyridin-4-yl]amino]phenyl]acetamide], the Emax was 50 to 100%.
For `COc1ccccc1-c1cc2c(Nc3cccnc3)nccc2n1C` [Compound 303, 2-(2-methoxyphenyl)-1-methyl-N-(3-pyridyl)pyrrolo[3,2-c]pyridin-4-amine], the Emax was 30 to 50%.
Work on `COc1ccccc1-c1cc2c(Nc3ccccn3)nccc2n1C` [Compound 304, 2-(2-methoxyphenyl)-1-methyl-N-(2-pyridyl)pyrrolo[3,2-c]pyridin-4-amine] yielded an Emax of 30 to 50%.
Work on `COc1cccc(-c2cc3c(Nc4ccc(NC(C)=O)cc4)nccc3[nH]2)c1` [Compound 306, N-[4-[[2-(3-methoxyphenyl)-1H-pyrrolo[3,2-c]pyridin-4-yl]amino]phenyl]acetamide] yielded an Emax of 50 to 100%.
Work on `COc1cccc(-c2cc3c(Nc4ccc(OC)nc4)nccc3[nH]2)c1` [Compound 307, 2-(3-methoxyphenyl)-N-(6-methoxy-3-pyridyl)-1H-pyrrolo[3,2-c]pyridin-4-amine] yielded an Emax of 50 to 100%.
With `COc1cccc(-c2cc3c(Nc4cccnc4)nccc3[nH]2)c1` [Compound 308, 2-(3-methoxyphenyl)-N-(3-pyridyl)-1H-pyrrolo[3,2-c]pyridin-4-amine] the Emax was 50 to 100%.
`COc1cccc(-c2cc3c(Nc4ccccc4)nccc3[nH]2)c1` [Compound 309, 2-(3-methoxyphenyl)-N-phenyl-1H-pyrrolo[3,2-c]pyridin-4-amine] gave an Emax of 30 to 50%.
For `COc1cccc(-c2cc3c(Nc4ccc(N5CCN(C)CC5)cc4)nccc3[nH]2)c1` [Compound 310, 2-(3-methoxyphenyl)-N-[4-(4-methylpiperazin-1-yl)phenyl]-1H-pyrrolo[3,2-c]pyridin-4-amine], the Emax was 50 to 100%.
In the case of `COc1cccc(-c2cc3c(Nc4cccc(S(C)(=O)=O)c4)nccc3[nH]2)c1` [Compound 311, 2-(3-methoxyphenyl)-N-(3-methylsulfonylphenyl)-1H-pyrrolo[3,2-c]pyridin-4-amine], the Emax is reported as 50 to 100%.
Work on `COc1cccc(-c2cc3c(Nc4ccc(OC)c(O)c4)nccc3[nH]2)c1` [Compound 312, 2-methoxy-5-[[2-(3-methoxyphenyl)-1H-pyrrolo[3,2-c]pyridin-4-yl]amino]phenol] yielded an Emax of 50 to 100%.
`COc1cccc(-c2cc3c(Nc4ccc(C(=O)N(C)C)cc4)nccc3[nH]2)c1` [Compound 313, 4-[[2-(3-methoxyphenyl)-1H-pyrrolo[3,2-c]pyridin-4-yl]amino]-N,N-dimethyl-benzamide] showed an Emax of over 100%.
`Clc1cccc(-c2cc3c(Nc4cccnc4)nccc3[nH]2)c1` [Compound 315, 2-(3-chlorophenyl)-N-(3-pyridyl)-1H-pyrrolo[3,2-c]pyridin-4-amine] showed an Emax of 30 to 50%.
`Cn1c(-c2cccc(Cl)c2)cc2c(Nc3ccncn3)nccc21` [Compound 316, 2-(3-chlorophenyl)-1-methyl-N-pyrimidin-4-yl-pyrrolo[3,2-c]pyridin-4-amine] showed an Emax of 30 to 50%.
Work on `Oc1ccc(Nc2nccc3[nH]c(-c4ccccc4)cc23)cc1` [Compound 317, 4-[(2-phenyl-1H-pyrrolo[3,2-c]pyridin-4-yl)amino]phenol] yielded an Emax of 50 to 100%.
